Measurements taken from patent US7655430B2, “Method for analyzing residual agricultural chemical” (priority 2004, dated 2010).

Tests used:
[1] = tested on: choline esterase; assay: choline esterase inhibition, inhibitory signal from hydrogen peroxide generated (choline esterase/choline oxidase, acetylcholine substrate); assay type: biochemical
Description: In this Example, it was intended to confirm the derivatization of carbosulfan (see FIG. 2). Carbosulfan was converted into carbofuran by adding a reduced glutathione (GSH), to a concentration of 5×10^−5M, and a glutathione-transferase (GST), to a concentration of 0.025 U/mL, to 10 mL of a 0.02M Mes buffer solution (pH 6.0) (2-morpholino-ethane sulfonic acid) containing carbosulfan in a variety of concentrations and then allowing each resulting reaction system to stand over at least 30 minutes.
Then, 10 mL of a solution containing 0.1M phosphate buffer solution (pH 7.6) and 0.2M potassium chloride was added to the foregoing solution which had been allowed to stand, to thus obtain a solution having a volume of 20 mL. […]
After bringing these components into contact with one another by allowing them to stand, acetylcholine was added to a concentration of 2×10^−4M to the foregoing solution and then the amount of hydrogen peroxide generated was determined to thus inspect the solution for the activity to inhibit the choline esterase activity. The same solution free of a carbosulfan was used as a control and this was compared with the solutions, which included carbosulfan in a variety of concentrations, based on the detected inhibitory signals corresponding to the quantities of the resulting hydrogen peroxide. […]

[2] = tested on: choline esterase; conditions: background description, no test described; cited from earlier work

SMILES	calibration curve of inhibitory signal (FIG. 3) ([1]; after conversion with reduced glutathione (5×10^−5M) and glutathione transferase (0.025 U/mL), at least 30 minutes)	inhibitory activity (inhibitory signal, calibration curve FIG. 3) ([1]; reference material free of conversion with reduced glutathione and glutathione transferase)	ability to inhibit choline esterase [2]
CCCCN(CCCC)SN(C)C(=O)Oc1cccc2c1OC(C)(C)C2 [carbosulfan]	almost identical to that observed for the reference material of carbofuran	only a weak inhibitory activity	
CNC(=O)Oc1cccc2c1OC(C)(C)C2 [carbofuran]			strong activity of inhibiting choline esterase activity
